According to patent US4820722A, “Disubstituted tetrazoles and their use as leukotriene antagonists” (Eli Lilly and Company, priority 1987, dated 1989):

The compounds below were run against T1, LTD4 responses of guinea pig ileum and trachea (Cavia porcellus, UniProt Q2NNR5) (assay: LTD4 antagonism, cumulative LTD4 concentration-response curves in guinea pig ileum and trachea (KB by Furthgott method)). Conditions: 30 minute incubation with antagonist, Table I title names ileal contractions.
T1 sequence (Q2NNR5 1-340): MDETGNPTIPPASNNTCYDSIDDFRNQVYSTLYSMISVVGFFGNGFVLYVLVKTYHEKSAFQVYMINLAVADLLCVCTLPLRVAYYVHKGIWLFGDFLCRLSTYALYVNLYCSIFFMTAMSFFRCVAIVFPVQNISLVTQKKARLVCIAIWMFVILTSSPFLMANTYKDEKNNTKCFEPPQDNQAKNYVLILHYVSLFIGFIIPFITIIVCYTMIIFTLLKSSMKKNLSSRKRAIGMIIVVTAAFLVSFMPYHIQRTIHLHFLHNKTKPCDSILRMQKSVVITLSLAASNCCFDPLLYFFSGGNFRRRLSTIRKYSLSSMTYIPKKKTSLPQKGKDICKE
Format: cell-based, guinea pig (male Hartley)

Compound	pKB (negative log of the dissociation KB)
CCCc1c(COc2ccc(Cc3nnn(CCCCCc4nnn[nH]4)n3)cc2)ccc(C(C)=O)c1O.[Na]	7.64
CCCc1c(COc2ccc(Cc3nnn(CCCN(C)C)n3)cc2)ccc(C(C)=O)c1O [Example 15, 5-[(4-((4-Acetyl-3-hydroxy-2-propylphenyl)methoxy)phenyl)methyl]-2-(3-(dimethylamino)propyl)-2H-tetrazole]	6.65
CCCc1c(COc2ccc(Cc3nnnn3CCCN(C)C)cc2)ccc(C(C)=O)c1O [Example 16, 5-[(4-((4-Acetyl-3-hydroxy-2-propylphenyl)methoxy)phenyl)methyl]-1-(3-(dimethylamino)propyl)-1H-tetrazole]	6.01
CCCc1c(COc2ccc(Cc3nnn(CCCSC)n3)cc2)ccc(C(C)=O)c1O [Example 17, 5-[(4-((4-Acetyl-3-hydroxy-2-propylphenyl)methoxy)phenyl)methyl]-2-(3-methylthiopropyl)-2H-tetrazole]	6.45
CCCc1c(COc2ccc(Cc3nnn(CCCCCCc4nnn[nH]4)n3)cc2)ccc(C(C)=O)c1O [Example 27, 1-[2-Hydroxy-3-propyl-4-[[4-[[2-[6-(1H-tetrazol-5-yl)hexyl]-2H-tetrazol-5-yl]methyl]phenoxy]methyl]phenyl]ethanone]	7.38
CCCc1c(COc2ccc(Cc3nnn(CCC(C)(C)Cc4nnn[nH]4)n3)cc2)ccc(C(C)=O)c1O [Example 28]	7.70

Continued, values first:

pKB (negative log of the dissociation KB)	Compound
7.63	CCCc1c(COc2ccc(-c3nnn(CCCc4nnn[nH]4)n3)cc2)ccc(C(C)=O)c1O [Example 36]
6.37	CCCc1c(COc2ccc(-c3nnn(CCCN(C)C)n3)cc2)ccc(C(C)=O)c1O [Example 37, 1-[4-[[4-[2-[3-(Dimethylamino)propyl]-2H-tetrazol-5-yl]phenoxy]methyl]-2-hydroxy-3-propylphenyl]ethanone]
7.90	CCCc1c(COc2ccc(Cc3nnn(Cc4ccc(-c5nnn[nH]5)cc4)n3)cc2)ccc(C(C)=O)c1O [Example 38, 1-[2-Hydroxy-3-propyl-4-[[4-[[2-[[4-(1H-tetrazol-5-yl)phenyl]methyl]-2H-tetrazol-5-yl]methyl]phenoxy]methyl]phenyl]ethanone]
6.50	CCCc1c(COc2ccc(Cc3nnn(CCC[S+](C)[O-])n3)cc2)ccc(C(C)=O)c1O (stereo not shown) [Example 39, 5-[(4-((4-Acetyl-3-hydroxy-2-propylphenyl)methoxy)phenyl)methyl]-2-(3-methylsulfinylpropyl)-2H-tetrazole]
6.37	CCCc1c(COc2ccc(Cc3nnn(CCCS(C)(=O)=O)n3)cc2)ccc(C(C)=O)c1O [Example 40, 5-[(4-((4-Acetyl-3-hydroxy-2-propylphenyl)methoxy)phenyl)methyl]-2-(3-methylsulfonylpropyl)-2H-tetrazole]

These compounds were tested on LTD4 evoked contractions of guinea pig ileum (assay: LTD4 antagonism on isolated guinea pig ileum (inhibition of LTD4 evoked ileal contractions, single submaximal LTD4 responses)). Conditions: Cavia porcellus, 37° C., five minute exposure to drug, 2-4 concentrations, linear regression interpolation, read-out: -log IC50 (antagonist concentration that produced 50% inhibition of the LTD4 responses) (converted).
Format: cell-based, guinea pig (male Hartley)
Protocol: Male, Hartley guinea pigs weighing 200-450 grams were killed by decapitation. A section of terminal ileum was removed, the lumen cleaned, and the tissue divided into 2.5 cm. segments. The ilea were mounted in 10 ml. tissue baths containing Krebs-bicarbonate solution of the following composition in mmoles/liter: KCl, 4.6; CaCl2 ·2H2 O, 1.2; KH2 PO4, 1.2; MgSO4 ·7H20, 1.2; NaCl, 118.2; NaHCO3, 24.8; and dextrose, 10.0. The bath fluid was maintained at 37° C. and aerated with 95 percent oxygen and 5 percent CO2. In addition, the buffer contained […] atropine to reduce ileal spontaneous activity. Isometric measurements were made with a Grass FTO3C force-displacement transducer and recorded on a Grass polygraph as change in grams of force. A passive force of 0.5 g. was applied to the tissues. After an appropriate equilibration period, single submaximal control responses to pure LTD4 were obtained. Following a five minute exposure of the ileum to an experimental drug, the control concentration of LTD4 was added to the tissue bath. The response of the ileum to LTD4 in the presence of the drug was compared to the response in the absence of the drug. Various degrees of LTD4 antagonism were obtained using 2-4 different concentrations of an experimental compound on a single ileum.

Compound	IC50
CCCc1c(COc2ccc(Cc3nnnn3Cc3nnn[nH]3)cc2)ccc(C(C)=O)c1O [Example 21]	0.0174 µM
CCCc1c(COc2ccc(Cc3nnn(Cc4nnn[nH]4)n3)cc2)ccc(C(C)=O)c1O [Example 22, 1-[2-hydroxy-3-(propyl)-4-[[4-[[2-(1H-tetra-zol-5-ylmethyl)-2H-tetrazol-5-yl]methyl]phenoxyl]methyl]phenyl]ethanone]	0.0117 µM
CCCc1c(COc2ccc(Cc3nnnn3CCCc3nnn[nH]3)cc2)ccc(C(C)=O)c1O [Example 23]	0.0141 µM
CCCc1c(COc2ccc(Cc3nnn(CCCc4nnn[nH]4)n3)cc2)ccc(C(C)=O)c1O [Example 24, 1-2[-Hydroxy-3-propyl-4[[4-[[2-[3-(1H-tetra-zol-5-yl)propyl]-2H-tetrazol-5-yl]methyl]phenoxy]methyl]phenyl]ethanone]	0.0038 µM
CCCc1c(COc2ccc(Cc3nnnn3CCCCc3nnn[nH]3)cc2)ccc(C(C)=O)c1O [Example 25]	0.0191 µM
CCCc1c(COc2ccc(Cc3nnn(CCCCc4nnn[nH]4)n3)cc2)ccc(C(C)=O)c1O [Example 26, 1-[2-Hydroxy-3-propyl-4-[[4-[[2-[4-(1H-tetrazol-5-yl)butyl]tetrazol-5-yl]methyl]phenoxy]methyl]phenyl]ethanone]	0.00813 µM

Further lines, results first:

IC50	Compound
0.0282 µM	CCCc1c(COc2ccc(Cc3nnn(CC(=O)O)n3)cc2)ccc(C(C)=O)c1O [Example 31, 5-[[4-[(4-Acetyl-3-hydroxy-2-propylphenyl)methoxy]phenyl]methyl]-2H-tetrazole-2-acetic acid]
0.0575 µM	CCCc1c(COc2ccc(Cc3nnnn3CCCC(=O)O)cc2)ccc(C(C)=O)c1O [Example 32, 5-[[4-[[4-Acetyl-3-hydroxy-2-propylphenyl)methoxy]phenyl]methyl]-1H-tetrazole-1-butyric acid]
0.02 µM	CCCc1c(COc2ccc(Cc3nnn(CCCC(=O)O)n3)cc2)ccc(C(C)=O)c1O [Example 33, 5-[(4-[(4-Acetyl-3-hydroxy-2-propylphenyl)methoxy]phenyl)methyl]-2H-tetrazole-2-butanoic acid]
0.055 µM	CCCc1c(COc2ccc(Cc3nnnn3CCCCC(=O)O)cc2)ccc(C(C)=O)c1O [Example 34, 5-[(4-[(4-Acetyl-3-hydroxy-2-propylphenyl)methoxy]phenyl)methyl]-1H-tetrazol-1-valeric acid]
0.0117 µM	CCCc1c(COc2ccc(Cc3nnn(CCCCC(=O)O)n3)cc2)ccc(C(C)=O)c1O [Example 35, 5-[(4-[(4-Acetyl-3-hydroxy-2-propylphenyl)methoxy]phenyl)methyl]-2H-tetrazole-2-valeric acid]
